Source: publication PMC9229919, “4-Aminoquinoline-Based Adamantanes as Potential Anticholinesterase Agents in Symptomatic Treatment of Alzheimer’s Disease” (Pharmaceutics, 2022)
Like-named read-outs stand apart in the source and are kept apart here.

Key:
[1] = Ferric reducing antioxidant power (FRAP) assay; conditions: mean ± standard error of three experiments;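 further: expressed as µM Fe2+ equivalents from an FeSO4·7H2O standard curve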
How it was run: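 Compounds at 10 and 100 µM were mixed with FRAP reagent (300 mM acetate buffer pH 3.6, TPTZ in HCl, FeCl3, 10:1:1) and incubated 60 min at 37 °C. Fe^2+-TPTZ formation read at 593 nm against a blank. Values derived from an Fe2SO4·7H2O standard curve, three independent experiments.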

[2] = Reverse-phase thin-layer chromatographic lipophilicity (RF, RM0); type: physicochemical; conditions: for RM0: intercept of RM = RM0 + bC; for b: slope of RM = RM0 + bC; for RF, Methanol/Water/Hydrochloric acid (conc.), mobile phase I / RF, Dioxane/Water/Hydrochloric acid (conc.), mobile phase II / RF, Methanol/Water/Hydrochloric acid (conc.), mobile phase II / RF, Acetone/Water/Hydrochloric acid (conc.), mobile phase III / RF, Dioxane/Water/Hydrochloric acid (conc.), mobile phase III / RF, Methanol/Water/Hydrochloric acid (conc.), mobile phase III / RF, Dioxane/Water/Hydrochloric acid (conc.), mobile phase IV / RF, Acetone/Water/Hydrochloric acid (conc.), mobile phase IV / RF, Methanol/Water/Hydrochloric acid (conc.), mobile phase IV / RF, Acetone/Water/Hydrochloric acid (conc.), mobile phase IX / RF, Methanol/Water/Hydrochloric acid (conc.), mobile phase IX / RF, Dioxane/Water/Hydrochloric acid (conc.), mobile phase V / RF, Acetone/Water/Hydrochloric acid (conc.), mobile phase V / RF, Methanol/Water/Hydrochloric acid (conc.), mobile phase V / RF, Dioxane/Water/Hydrochloric acid (conc.), mobile phase VI / RF, Acetone/Water/Hydrochloric acid (conc.), mobile phase VI / RF, Methanol/Water/Hydrochloric acid (conc.), mobile phase VI / RF, Acetone/Water/Hydrochloric acid (conc.), mobile phase VII / RF, Methanol/Water/Hydrochloric acid (conc.), mobile phase VII / RF, Acetone/Water/Hydrochloric acid (conc.), mobile phase VIII / RF, Methanol/Water/Hydrochloric acid (conc.), mobile phase VIII: RP-18 silica; for RF, Methanol/Water/Hydrochloric acid (conc.), mobile phase I: I = 90%MeOH/5%H2O/5%HCl; for RF, Dioxane/Water/Hydrochloric acid (conc.), mobile phase II: II = 80%Dioxane/15%H2O/5%HCl; for RF, Methanol/Water/Hydrochloric acid (conc.), mobile phase II: II = 85%MeOH/10%H2O/5%HCl; for RF, Acetone/Water/Hydrochloric acid (conc.), mobile phase III: III = 70%AC/25%H2O/5%HCl; for RF, Dioxane/Water/Hydrochloric acid (conc.), mobile phase III: III = 70%Dioxane/25%H2O/5%HCl; for RF, Methanol/Water/Hydrochloric acid (conc.), mobile phase III: III = 80%MeOH/15%H2O/5%HCl; for RF, Dioxane/Water/Hydrochloric acid (conc.), mobile phase IV: IV = 60%Dioxane/35%H2O/5%HCl; for RF, Acetone/Water/Hydrochloric acid (conc.), mobile phase IV: IV = 65%AC/30%H2O/5%HCl; for RF, Methanol/Water/Hydrochloric acid (conc.), mobile phase IV: IV = 75%MeOH/20%H2O/5%HCl; for RF, Acetone/Water/Hydrochloric acid (conc.), mobile phase IX: IX = 40%AC/55%H2O/5%HCl; for RF, Methanol/Water/Hydrochloric acid (conc.), mobile phase IX: IX = 50%MeOH/45%H2O/5%HCl; for RF, Dioxane/Water/Hydrochloric acid (conc.), mobile phase V: V = 50%Dioxane/45%H2O/5%HCl; for RF, Acetone/Water/Hydrochloric acid (conc.), mobile phase V: V = 60%AC/35%H2O/5%HCl; for RF, Methanol/Water/Hydrochloric acid (conc.), mobile phase V: V = 70%MeOH/25%H2O/5%HCl; for RF, Dioxane/Water/Hydrochloric acid (conc.), mobile phase VI: VI = 40%Dioxane/55%H2O/5%HCl; for RF, Acetone/Water/Hydrochloric acid (conc.), mobile phase VI: VI = 55%AC/40%H2O/5%HCl; for RF, Methanol/Water/Hydrochloric acid (conc.), mobile phase VI: VI = 65%MeOH/30%H2O/5%HCl; for RF, Acetone/Water/Hydrochloric acid (conc.), mobile phase VII: VII = 50%AC/45%H2O/5%HCl; for RF, Methanol/Water/Hydrochloric acid (conc.), mobile phase VII: VII = 60%MeOH/35%H2O/5%HCl; for RF, Acetone/Water/Hydrochloric acid (conc.), mobile phase VIII: VIII = 45%AC/50%H2O/5%HCl; for RF, Methanol/Water/Hydrochloric acid (conc.), mobile phase VIII: VIII = 55%MeOH/40%H2O/5%HCl
How it was run: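 Reverse-phase TLC using mobile phases of methanol, acetone or dioxane with water and hydrochloric acid. Methanol varied in 10% steps; development distance 4.5 cm, ambient temperature (22±2 °C). RF measured and RM0 derived from retention.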

[3] = biological target: T1, purified human BChE (Homo sapiens, UniProt P06276); assay: biochemical; type: biochemical
T1 construct: possibly also a gift of Dr Florian Nachon (the sentence is ambiguous)
How it was run: (§1)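 Modified Ellman assay with acetylthiocholine and DTNB in 0.1 M sodium phosphate pH 7.4 (enzymes diluted with 0.1% BSA), ≤0.2% DMSO, 25 °C. At least three inhibitor concentrations per substrate level; Ki,app from Hunter–Downs equation, Ki from y-intercept and inhibition type from Ki,app vs [S].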

[4] = biological target: T2, recombinant human AChE (Homo sapiens, UniProt P22303); assay: biochemical; type: biochemical; conditions: for IS: IS = Ki(BChE)/Ki(AChE), IS > 1 selective to AChE
T2 construct: gift of Dr Florian Nachon (Armed Forces Biomedical Research Institute, Brétigny-sur-Orge, France)
How it was run: as §1

[5] = Acetone/Water/Hydrochloric acid (conc.)
[6] = Dioxane/Water/Hydrochloric acid (conc.)
[7] = Methanol/Water/Hydrochloric acid (conc.)
[8] = logarithm of Ki in µM, BChE, dependent variable of the QSAR model, read-out: Y Measured 2 log(ki)Bche, log (Ki/µM BChE) (converted)
[9] = ± standard error, 25 °C, ATCh substrate, read-out: Ki BChE
[10] = log (Ki/µM AChE), read-out: Y Measured 1 log(ki)Ache (converted)
[11] = ± standard error, 25 °C, ATCh substrate, read-out: Ki AChE

T1 sequence (P06276 29-602): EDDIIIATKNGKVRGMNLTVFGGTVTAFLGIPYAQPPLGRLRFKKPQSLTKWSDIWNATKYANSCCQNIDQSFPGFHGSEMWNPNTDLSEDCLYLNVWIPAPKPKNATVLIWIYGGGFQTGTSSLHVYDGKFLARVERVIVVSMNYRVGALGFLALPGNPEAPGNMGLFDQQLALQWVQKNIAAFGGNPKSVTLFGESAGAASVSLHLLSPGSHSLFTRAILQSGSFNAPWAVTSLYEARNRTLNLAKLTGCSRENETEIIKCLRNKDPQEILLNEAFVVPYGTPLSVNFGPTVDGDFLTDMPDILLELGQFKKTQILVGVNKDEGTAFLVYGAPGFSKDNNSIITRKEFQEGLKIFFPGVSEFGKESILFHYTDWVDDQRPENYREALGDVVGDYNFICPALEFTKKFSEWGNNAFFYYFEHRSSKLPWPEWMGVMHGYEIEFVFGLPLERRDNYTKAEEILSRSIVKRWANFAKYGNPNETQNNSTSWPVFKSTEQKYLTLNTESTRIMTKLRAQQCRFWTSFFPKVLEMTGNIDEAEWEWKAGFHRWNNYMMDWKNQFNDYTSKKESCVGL
T2 sequence (P22303 32-614): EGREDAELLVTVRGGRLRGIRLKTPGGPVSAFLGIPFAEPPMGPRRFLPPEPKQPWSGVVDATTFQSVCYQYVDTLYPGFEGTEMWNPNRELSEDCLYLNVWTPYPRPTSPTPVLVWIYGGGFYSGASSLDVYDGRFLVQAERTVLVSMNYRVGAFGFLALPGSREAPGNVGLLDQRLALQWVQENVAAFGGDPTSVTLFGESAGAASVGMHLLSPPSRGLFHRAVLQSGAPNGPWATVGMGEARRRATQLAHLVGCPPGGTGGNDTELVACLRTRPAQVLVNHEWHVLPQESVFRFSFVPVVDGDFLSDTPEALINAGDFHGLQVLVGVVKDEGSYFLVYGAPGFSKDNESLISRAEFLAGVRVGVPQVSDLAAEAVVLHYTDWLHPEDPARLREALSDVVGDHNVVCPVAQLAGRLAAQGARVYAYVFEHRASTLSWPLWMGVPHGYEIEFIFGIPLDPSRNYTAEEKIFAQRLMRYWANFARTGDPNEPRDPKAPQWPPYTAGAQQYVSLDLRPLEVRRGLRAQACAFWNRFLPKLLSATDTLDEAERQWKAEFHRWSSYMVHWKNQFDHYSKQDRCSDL

SMILES | FRAP ([1]; 10 µM compound) [µM] | FRAP ([1]; 100 µM compound) [µM] | RM0 [2, 5] | b [2, 5] | RM0 [2, 6] | b [2, 6] | RM0 [2, 7] | b [2, 7] | RF, Methanol/Water/Hydrochloric acid (conc.), mobile phase I [2] | RF, Dioxane/Water/Hydrochloric acid (conc.), mobile phase II [2] | RF, Methanol/Water/Hydrochloric acid (conc.), mobile phase II [2] | RF, Acetone/Water/Hydrochloric acid (conc.), mobile phase III [2] | RF, Dioxane/Water/Hydrochloric acid (conc.), mobile phase III [2] | RF, Methanol/Water/Hydrochloric acid (conc.), mobile phase III [2] | RF, Dioxane/Water/Hydrochloric acid (conc.), mobile phase IV [2] | RF, Acetone/Water/Hydrochloric acid (conc.), mobile phase IV [2] | RF, Methanol/Water/Hydrochloric acid (conc.), mobile phase IV [2] | RF, Acetone/Water/Hydrochloric acid (conc.), mobile phase IX [2] | RF, Methanol/Water/Hydrochloric acid (conc.), mobile phase IX [2] | RF, Dioxane/Water/Hydrochloric acid (conc.), mobile phase V [2] | further results
CC(CCNCC12CC3CC(CC(C3)C1)C2)Nc1ccnc2cc(C(F)(F)F)ccc12 (stereo not shown) [Compound 13] | 19 ± 7 | 64 ± 5 | 2.073 | 3.206 | 0.9361 | 1.847 | 2.626 | 3.42 | 0.72 | 0.73 | 0.66 | 0.56 | 0.7 | 0.5 | 0.7 | 0.52 | 0.49 | 0.1 | 0.09 | 0.5 | RF, Acetone/Water/Hydrochloric acid (conc.), mobile phase V [2]: 0.4; RF, Methanol/Water/Hydrochloric acid (conc.), mobile phase V [2]: 0.42; RF, Dioxane/Water/Hydrochloric acid (conc.), mobile phase VI [2]: 0.33; RF, Acetone/Water/Hydrochloric acid (conc.), mobile phase VI [2]: 0.34; RF, Methanol/Water/Hydrochloric acid (conc.), mobile phase VI [2]: 0.34; RF, Acetone/Water/Hydrochloric acid (conc.), mobile phase VII [2]: 0.3; RF, Methanol/Water/Hydrochloric acid (conc.), mobile phase VII [2]: 0.22; RF, Acetone/Water/Hydrochloric acid (conc.), mobile phase VIII [2]: 0.23; RF, Methanol/Water/Hydrochloric acid (conc.), mobile phase VIII [2]: 0.14; Ki [3, 8]: 1.4 µM; Ki [3, 9]: 1.8 ± 0.3 µM; Ki [4, 10]: 0.91 µM; Ki [4, 11]: 0.91 ± 0.05 µM
FC(F)(F)c1ccc2c(NCCCNCC34CC5CC(CC(C5)C3)C4)ccnc2c1 [Compound 7] | 7.1 ± 2.1 | 21 ± 7 | 2.012 | 3.156 | 0.9445 | 1.874 | 2.606 | 3.427 | 0.73 | 0.74 | 0.67 | 0.57 | 0.7 | 0.51 | 0.7 | 0.54 | 0.51 | 0.11 | 0.09 | 0.51 | RF, Acetone/Water/Hydrochloric acid (conc.), mobile phase V [2]: 0.42; RF, Methanol/Water/Hydrochloric acid (conc.), mobile phase V [2]: 0.44; RF, Dioxane/Water/Hydrochloric acid (conc.), mobile phase VI [2]: 0.33; RF, Acetone/Water/Hydrochloric acid (conc.), mobile phase VI [2]: 0.36; RF, Methanol/Water/Hydrochloric acid (conc.), mobile phase VI [2]: 0.36; RF, Acetone/Water/Hydrochloric acid (conc.), mobile phase VII [2]: 0.32; RF, Methanol/Water/Hydrochloric acid (conc.), mobile phase VII [2]: 0.23; RF, Acetone/Water/Hydrochloric acid (conc.), mobile phase VIII [2]: 0.24; RF, Methanol/Water/Hydrochloric acid (conc.), mobile phase VIII [2]: 0.15; Ki [3, 8]: 2.6 µM; Ki [3, 9]: 2.6 ± 0.2 µM; IS [4]: 2.4; Ki [4, 10]: 1.1 µM; Ki [4, 11]: 1.1 µM
Clc1ccc2c(NCCCCNCC34CC5CC(CC(C5)C3)C4)ccnc2c1 [Compound 3] | 0 | 38 ± 6 | 1.838 | 3.04 | 0.7921 | 1.783 | 2.348 | 3.092 | 0.71 | 0.78 | 0.65 | 0.63 | 0.74 | 0.51 | 0.74 | 0.58 | 0.53 | 0.15 | 0.11 | 0.55 | RF, Acetone/Water/Hydrochloric acid (conc.), mobile phase V [2]: 0.51; RF, Methanol/Water/Hydrochloric acid (conc.), mobile phase V [2]: 0.44; RF, Dioxane/Water/Hydrochloric acid (conc.), mobile phase VI [2]: 0.41; RF, Acetone/Water/Hydrochloric acid (conc.), mobile phase VI [2]: 0.41; RF, Methanol/Water/Hydrochloric acid (conc.), mobile phase VI [2]: 0.37; RF, Acetone/Water/Hydrochloric acid (conc.), mobile phase VII [2]: 0.35; RF, Methanol/Water/Hydrochloric acid (conc.), mobile phase VII [2]: 0.25; RF, Acetone/Water/Hydrochloric acid (conc.), mobile phase VIII [2]: 0.3; RF, Methanol/Water/Hydrochloric acid (conc.), mobile phase VIII [2]: 0.18; Ki [3, 8]: 0.92 µM; Ki [3, 9]: 0.92 ± 0.04 µM; IS [4]: 0.9; Ki [4, 10]: 1 µM; Ki [4, 11]: 1 µM
FC(F)(F)c1ccc2c(NCCNCC34CC5CC(CC(C5)C3)C4)ccnc2c1 [Compound 6] | 4.6 ± 0.8 | 25 ± 6 | 2.0143 | 3.169 | 0.9723 | 1.909 | 2.421 | 3.208 | 0.73 | 0.74 | 0.67 | 0.57 | 0.7 | 0.51 | 0.7 | 0.53 | 0.53 | 0.11 | 0.11 | 0.49 | RF, Acetone/Water/Hydrochloric acid (conc.), mobile phase V [2]: 0.45; RF, Methanol/Water/Hydrochloric acid (conc.), mobile phase V [2]: 0.44; RF, Dioxane/Water/Hydrochloric acid (conc.), mobile phase VI [2]: 0.33; RF, Acetone/Water/Hydrochloric acid (conc.), mobile phase VI [2]: 0.36; RF, Methanol/Water/Hydrochloric acid (conc.), mobile phase VI [2]: 0.39; RF, Acetone/Water/Hydrochloric acid (conc.), mobile phase VII [2]: 0.32; RF, Methanol/Water/Hydrochloric acid (conc.), mobile phase VII [2]: 0.23; RF, Acetone/Water/Hydrochloric acid (conc.), mobile phase VIII [2]: 0.24; RF, Methanol/Water/Hydrochloric acid (conc.), mobile phase VIII [2]: 0.18; Ki [3, 8]: 3.5 µM; Ki [3, 9]: 3.5 ± 0.3 µM; IS [4]: 2.9; Ki [4, 10]: 1.2 µM; Ki [4, 11]: 1.2 ± 0.1 µM
Clc1ccc2c(NCCCN3CCN(CCCNCCC45CC6CC(CC(C6)C4)C5)CC3)ccnc2c1 [Compound 23] | 1.4 ± 0.1 | 20 ± 5 | 1.784 | 2.934 | 0.7935 | 1.661 | 2.211 | 2.892 | 0.64 | 0.73 | 0.66 | 0.62 | 0.71 | 0.54 | 0.71 | 0.58 | 0.53 | 0.15 | 0.12 | 0.51 | RF, Acetone/Water/Hydrochloric acid (conc.), mobile phase V [2]: 0.48; RF, Methanol/Water/Hydrochloric acid (conc.), mobile phase V [2]: 0.44; RF, Dioxane/Water/Hydrochloric acid (conc.), mobile phase VI [2]: 0.38; RF, Acetone/Water/Hydrochloric acid (conc.), mobile phase VI [2]: 0.42; RF, Methanol/Water/Hydrochloric acid (conc.), mobile phase VI [2]: 0.37; RF, Acetone/Water/Hydrochloric acid (conc.), mobile phase VII [2]: 0.35; RF, Methanol/Water/Hydrochloric acid (conc.), mobile phase VII [2]: 0.25; RF, Acetone/Water/Hydrochloric acid (conc.), mobile phase VIII [2]: 0.31; RF, Methanol/Water/Hydrochloric acid (conc.), mobile phase VIII [2]: 0.18; Ki [3, 8]: 1.8 µM; Ki [3, 9]: 1.8 ± 0.2 µM; IS [4]: 4.1; Ki [4, 10]: 0.44 µM; Ki [4, 11]: 0.44 ± 0.09 µM
